Read-outs that look alike come from different tables or passages of the source.
Key:
[1] = biological target: T1, LATS1 Kinase-NanoLuc fusion in HEK-293 cells (Homo sapiens, UniProt O95835); assay: NanoBRET target engagement assay in transfected HEK-293 cells, LATS1; format: cell-based
T1 construct: host or cells: HEK-293
T1 sequence (O95835 1-1130): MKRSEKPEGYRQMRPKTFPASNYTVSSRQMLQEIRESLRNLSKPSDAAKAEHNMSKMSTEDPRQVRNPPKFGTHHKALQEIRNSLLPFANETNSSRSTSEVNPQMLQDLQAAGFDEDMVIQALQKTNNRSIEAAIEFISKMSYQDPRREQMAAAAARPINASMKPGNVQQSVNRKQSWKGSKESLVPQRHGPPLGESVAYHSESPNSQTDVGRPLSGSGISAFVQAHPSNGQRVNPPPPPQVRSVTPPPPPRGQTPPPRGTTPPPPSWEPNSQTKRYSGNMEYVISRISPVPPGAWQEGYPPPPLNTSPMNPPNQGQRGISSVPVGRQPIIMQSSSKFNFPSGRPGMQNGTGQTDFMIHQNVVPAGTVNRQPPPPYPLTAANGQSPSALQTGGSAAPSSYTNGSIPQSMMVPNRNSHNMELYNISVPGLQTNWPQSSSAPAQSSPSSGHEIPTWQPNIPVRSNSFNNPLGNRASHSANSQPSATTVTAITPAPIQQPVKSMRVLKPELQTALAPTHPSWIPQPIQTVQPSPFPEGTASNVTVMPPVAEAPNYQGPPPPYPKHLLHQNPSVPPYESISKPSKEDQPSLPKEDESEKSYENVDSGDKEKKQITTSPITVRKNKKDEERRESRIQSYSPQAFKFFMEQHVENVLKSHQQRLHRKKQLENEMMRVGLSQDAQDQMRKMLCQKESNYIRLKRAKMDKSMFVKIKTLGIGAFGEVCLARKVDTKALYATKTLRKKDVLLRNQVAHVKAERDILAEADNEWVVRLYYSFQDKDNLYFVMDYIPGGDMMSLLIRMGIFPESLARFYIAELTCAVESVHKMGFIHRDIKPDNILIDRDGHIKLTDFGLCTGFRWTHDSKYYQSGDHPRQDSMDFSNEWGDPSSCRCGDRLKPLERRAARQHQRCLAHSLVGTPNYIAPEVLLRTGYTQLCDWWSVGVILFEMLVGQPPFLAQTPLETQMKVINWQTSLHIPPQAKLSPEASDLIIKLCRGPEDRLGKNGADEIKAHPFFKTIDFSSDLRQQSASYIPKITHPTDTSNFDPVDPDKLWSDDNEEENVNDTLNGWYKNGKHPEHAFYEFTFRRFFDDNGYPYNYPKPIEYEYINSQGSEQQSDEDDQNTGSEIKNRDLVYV
In short: (§1)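 HEK-293 cells transiently transfected with kinase-NanoLuc fusion plasmid for 22-24 h, then incubated with compound and NanoBRET tracer for 1 hour at 37° C. After substrate plus extracellular NanoLuc inhibitor addition, 460 and 600 nm emissions read; no-tracer-corrected BRET ratio used to derive IC50 values.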

[2] = biological target: T2, AKT Kinase-NanoLuc fusion in HEK-293 cells (Homo sapiens, UniProt P31749); assay: NanoBRET target engagement assay in transfected HEK-293 cells, AKT; format: cell-based
T2 construct: host or cells: HEK-293
In short: as §1

[3] = Table 28, NanoBRET, HEK-293 cells, read-out: LATS1 (Cellular) IC50
[4] = Table 28, NanoBRET, HEK-293 cells, read-out: AKT1 (Cellular) IC50
[5] = Table 32, NanoBRET, HEK-293 cells, read-out: LATS1 (Cellular) IC50
[6] = Table 32, NanoBRET, HEK-293 cells, read-out: AKT (Cellular) IC50
[7] = cellular, read-out: AKT (Cellular) IC50

T2 sequence (P31749 whole entry, the tested form may be a part): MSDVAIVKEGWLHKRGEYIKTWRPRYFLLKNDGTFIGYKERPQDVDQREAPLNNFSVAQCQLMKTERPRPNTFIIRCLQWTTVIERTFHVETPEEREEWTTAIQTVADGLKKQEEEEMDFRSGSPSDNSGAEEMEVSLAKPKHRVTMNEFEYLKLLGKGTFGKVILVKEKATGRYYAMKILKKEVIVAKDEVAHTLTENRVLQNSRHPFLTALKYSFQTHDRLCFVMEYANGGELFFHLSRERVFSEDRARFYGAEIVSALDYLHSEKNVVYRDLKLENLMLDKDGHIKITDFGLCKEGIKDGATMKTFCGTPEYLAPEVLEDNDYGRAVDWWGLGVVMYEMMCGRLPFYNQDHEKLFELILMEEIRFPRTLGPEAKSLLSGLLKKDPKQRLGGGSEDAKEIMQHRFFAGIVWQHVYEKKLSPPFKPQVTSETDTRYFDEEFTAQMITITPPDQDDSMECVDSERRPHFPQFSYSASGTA

SMILES | IC50 [1, 3] [nM] | IC50 [2, 4] [nM] | other results
CC1(c2ccc(-c3ccnc4[nH]ccc34)cc2)CCNCC1 [Compound 201, 4-(4-(4-methylpiperidin-4-yl)phenyl)-1H-pyrrolo[2,3-b]pyridine] | > 50000 | 7510 | 
NCc1ccc(-c2ccnc3[nH]cc(F)c23)cc1 [Compound 275, (4-(3-fluoro-1H-pyrrolo[2,3-b]pyridin-4-yl)phenyl) methanamine] | 10100 | 2060 | 
NCC(O)(c1ccc(Cl)cc1)c1ccc(-c2ccnc3[nH]cc(F)c23)cc1 (stereo not drawn) [Compound 1002, 2-amino-1-(4-chlorophenyl)-1-(4-(3-fluoro-1H-pyrrolo[2,3-b]pyridin-4-yl)phenyl)ethan-1-ol] |  |  | IC50 [1, 5]: 55 nM; IC50 [2, 6]: 27 nM
NCC(O)(c1ccc(Cl)cc1)c1ccc(-c2ccnc3[nH]cc(-c4cccnc4)c23)cc1 (stereo not drawn) [Compound 1007, 2-amino-1-(4-chlorophenyl)-1-(4-(3-(pyridin-3-yl)-1H-pyrrolo[2,3-b]pyridin-4-yl)phenyl)ethan-1-ol] |  |  | IC50 [1, 5]: 309 nM; IC50 [2, 6]: 153 nM
Cc1cc(-c2ccnc3[nH]cc(C#N)c23)cc(F)c1[C@@]1(O)[C@H](C)CN(C(=O)CNCC(F)(F)F)C[C@@H]1C [Compound 2014, 4-(3-fluoro-4-((3S,4s,5R)-4-hydroxy-3,5-dimethyl-1-((2,2,2-trifluoroethyl)glycyl)piperidin-4-yl)-5-methylphenyl)-1H-pyrrolo[2,3-b]pyridine-3-carbonitrile] |  |  | IC50 ([1]; cellular): 139 nM; IC50 [2, 7]: > 50000 nM
Cc1cc(-c2ccnc3[nH]cc(F)c23)ccc1[C@@]1(O)[C@H](C)CNC[C@@H]1C [Compound 9, (3S,4s,5R)-4-(4-(3-fluoro-1H-pyrrolo[2,3-b]pyridin-4-yl)-2-methylphenyl)-3,5-dimethylpiperidin-4-ol] | 44.6 | 15200 | 
C[C@@H]1CNC[C@H](C)[C@@]1(O)c1ccc(-c2ccnc3[nH]cc(F)c23)cc1F [Compound 7, (3S,4s,5R)-4-(2-fluoro-4-(3-fluoro-1H-pyrrolo[2,3-b]pyridin-4-yl)phenyl)-3,5-dimethyl piperidin-4-ol] | 247 | 8640 | 
Cc1cc(-c2ccnc3[nH]cc(C#N)c23)cc(F)c1[C@@]1(O)[C@H](C)CN(C(=O)CN)C[C@@H]1C [Compound 2004, 4-(3-fluoro-4-((3S,4s,5R)-1-glycyl-4-hydroxy-3,5-dimethylpiperidin-4-yl)-5-methylphenyl)-1H-pyrrolo[2,3-b]pyridine-3-carbonitrile] |  |  | IC50 ([1]; cellular): 2.5 nM; IC50 [2, 7]: 51700 nM
Cc1cc(-c2ccnc3[nH]cc(F)c23)ncc1[C@@]1(O)[C@H](C)CN(C2CCS(=O)(=O)CC2)C[C@@H]1C [Compound 51, 4-((3R,4s,5S)-4-(6-(3-fluoro-1H-pyrrolo[2,3-b]pyridin-4-yl)-4-methylpyridin-3-yl)-4-hydroxy-3,5-dimethylpiperidin-1-yl)tetrahydro-2H-thiopyran 1,1-dioxide] | > 30000 | > 30000 | 
NCc1ccc(-c2ccnc3[nH]cc(-c4ccccc4)c23)cc1 [Compound 253, (4-(3-phenyl-1H-pyrrolo[2,3-b]pyridin-4-yl)phenyl) methanamine] | 2980 | 338 | 

Second part, led by results:

IC50 [1, 3] [nM] | IC50 [2, 4] [nM] | SMILES | other results
10.4 | 12800 | Cc1cc(-c2ccnc3[nH]cc(F)c23)cc(F)c1[C@@]1(O)[C@H](C)CN(C(=O)[C@H](N)CO)C[C@@H]1C [Compound 312, (R)-2-amino-1-((3S,4R,5R)-4-(2-fluoro-4-(3-fluoro-1H-pyrrolo[2,3-b]pyridin-4-yl)-6-methylphenyl)-4-hydroxy-3,5-dimethylpiperidin-1-yl)-3-hydroxypropan-1-one] | 
813 | > 30000 | C[C@@H]1CN(C2COC2)C[C@H](C)[C@@]1(O)c1c(F)cc(-c2ccnc3[nH]cc(F)c23)cc1F [Compound 45, (3S,4s,5R)-4-(2,6-difluoro-4-(3-fluoro-1H-pyrrolo[2,3-b]pyridin-4-yl)phenyl)-3, S-dimethyl-1-(oxetan-3-yl)piperidin-4-ol] | 

Reference: patent US20250361230A1, “LATS Inhibitors and Uses Thereof” (The USA, as Represented by the Secretary, Dept. of Heath …, priority 2022, published 2025)
